Tests used:
[1] = in vivo; details: rhesus monkey, iv, 0.05 mg/kg
[2] = Intravenous albuterol pharmacokinetics in Rhesus monkeys; details: 0.05 mg/kg
[3] = cited from earlier work

AUC [1]: 84.2 ng·h/mL
Apparent volume of distribution ([2]; 50 mcg/Kg IV, Rhesus monkeys, n=4, mean): 1.9359 L/kg
Vd ([2]; rhesus monkey, serum, iv): 1.94 ± 0.0372 L/kg
SMILES: CC(C)(C)NCC(O)c1ccc(O)c(CO)c1 (centres unmarked) [albuterol]
Apparent volume of distribution in humans ([3]; human): 2.2 L/kg
Oral bioavailability ([3]; oral, extensive first pass metabolism, 'as low as'): ≥ 10%
